Experimental findings from US20260139007A1, “EPHA4 ANTAGONISTS AND USES THEREOF” (SANFORD BURNHAM PREBYS MEDICAL DISCOVERY INSTITUTE, priority 2023, published 2026) are described below.

As a reminder, the half-life is how long it takes for the measured level to halve. What is called IC50 is the midpoint of a concentration-inhibition curve.

Series [1] can be described thus: In vivo half-life: active compound remaining in mouse blood, deduced from apparent IC50 of plasma in the EphA4-ephrinA5 ELISA. As to conditions: mouse; for half-life: in vivo, read-out: In vivo half-life (converted). The protocol:
To examine the persistence of compounds in the blood circulation, an approach was devised to determine the concentration of compound in mouse blood by taking advantage of the ELISA measuring inhibition of EphA4-ephrinA5 interaction.
Lipidated compounds dissolved in DMSO were diluted in […] PBS (to a 5% final DMSO concentration) or in […] PBS supplemented with 20 or 40 mg/mL BSA or 6.5 mM methyl-β-cyclodextrin for intravenous or intraperitoneal injection. Neutral pH of the compound solution was verified before injection. PEGylated compounds were dissolved in […] PBS before intraperitoneal injection. Peptides were sterile filtered before administration. Blood from each mouse was collected at 3 different time points after compound injection, the first 2 times by retro-orbital bleeding and the third time by terminal cardiac bleeding under deep anesthesia. Red blood cells were removed by centrifugation from blood treated with heparin and the resulting plasma was frozen in aliquots.
For each time point, a dose-response curves by measuring inhibition of EphA4-ephrinA5 binding at different plasma dilutions was obtained.
In general terms: ELISA stands for enzyme-linked immunosorbent assay.

Series [2] concerns the target EphA4 Fc. The experiment in a line: ELISA measuring inhibition of ephrin-A5 AP binding to immobilized EphA4 Fc. Further details: species or system human or mouse.
For series [3], the target named is EphA4 Fc. The experiment in a line: ELISA inhibition of ephrin-A5 AP binding to EphA4 Fc in the presence of HSA, BSA or methyl-β-cyclodextrin. To be noted: for IC50: read-out: IC50 ± SE (n) by ELISA with HSA or BSA.
Text: To determine whether albumin binding to the lipidated compounds affects their ability to bind EphA4, the effects of delipidated human serum albumin (HSA) on the inhibitory potency of some of the compounds were examined.
Setting [4] is: iv, IV (intravenous administration).
The mark [5] stands for this setting: inhibition of ephrin-A5 AP binding to EphA4 Fc, averages of all experiments, read-out: IC50 ± SE (n) by ELISA.
Where [6] appears, read: ip, IP (intraperitoneal administration).

Like-named read-outs stand apart in the source and are kept apart here. Bridge positions count the residues as written; N and C are the ends. Square brackets hold non-standard residues; d marks the D form. Peptide text beside a SMILES is read from it. * marks the point of attachment. Octanoyl = CCCCCCCC(=O)*; βAla = NCCC(=O)O

With `CCCCCCCC(=O)NCCCC[C@@H]1NC(=O)[C@H](Cc2ccc(O)cc2)NC(=O)[C@H](C(C)C)NC(=O)[C@@H](NC(=O)[C@H](Cc2ccc(O)cc2)NC(=O)[C@@H]2CCCN2C(=O)CCN)CSSC[C@@H](C(=O)NCC(=O)NCC(=O)N[C@@H](CCCNC(=N)N)C(=O)NCC(N)=O)NC(=O)[C@H](CO)NC(=O)[C@H](Cc2c[nH]c3ccccc23)NC(=O)[C@H](CO)NC(=O)CCNC1=O` [Compound 5] (H-[βAla]PYCVYK(Octanoyl)[βAla]SWSCGGRG-NH2; disulfide 4-12), in series [1] (10 min after intravenous injection, in PBS with 5% DMSO), the “% of compound remaining in the blood” value was determined as 5%. For the same molecule, the half-life in series [1] (setting [4]) was less than 10 min. Also, the IC50 on EphA4 Fc [2] (setting [5]) was found to be 26 ± 5 nM; at EphA4 Fc [3] (40 mg/mL delipidated HSA), 75 ± 24 nM.

As for `CCCCCCCCCCCC(=O)NCCCC[C@H](NC(=O)CNC(=O)CNC(=O)[C@@H]1CSSC[C@H](NC(=O)[C@H](Cc2ccc(O)cc2)NC(=O)[C@@H]2CCCN2C(=O)CCN)C(=O)N[C@@H](C(C)C)C(=O)N[C@@H](Cc2ccc(O)cc2)C(=O)N[C@@H](CCCNC(=N)N)C(=O)NCCC(=O)N[C@@H](CO)C(=O)N[C@@H](Cc2c[nH]c3ccccc23)C(=O)N[C@@H](CO)C(=O)N1)C(=O)NCC(N)=O` [Compound 12], the In vivo half-life in series [1] (IV (intravenous administration)) was roughly 30 min. Moreover, the half-life in series [1] (setting [4]) was 30 to 42 min. For the same molecule, the 50% inhibitory concentration (IC50) at EphA4 Fc [2] (setting [5]) was 240 ± 30 nM; on EphA4 Fc [3] (40 mg/mL delipidated HSA) it was 920 ± 180 nM.

Regarding `CCCCCCCCCCCCCC(=O)N[C@@H](CCC(=O)N[C@@H](CCC(=O)NCCCC[C@H](NC(=O)CNC(=O)CNC(=O)[C@@H]1CSSC[C@H](NC(=O)[C@H](Cc2ccc(O)cc2)NC(=O)[C@@H]2CCCN2C(=O)CCN)C(=O)N[C@@H](C(C)C)C(=O)N[C@@H](Cc2ccc(O)cc2)C(=O)N[C@@H](CCCNC(=N)N)C(=O)NCCC(=O)N[C@@H](CO)C(=O)N[C@@H](Cc2c[nH]c3ccccc23)C(=O)N[C@@H](CO)C(=O)N1)C(=O)NCC(N)=O)C(=O)O)C(=O)O` [Compound 16], in series [1] (setting [6]), the half-life is roughly 120 min. The “decrease in potency compared to compound 15” value in the series with EphA4 Fc [2] (C14 myristoyl vs C12 lipid, γGluγGlu spacer) is recorded as 2-3 fold. Moreover, the IC50 was roughly 80 nM at EphA4 Fc [2] (ELISA inhibition of EphA4-ephrin-A5 interaction, read-out: IC50 (approximate)); 77 ± 9 nM at EphA4 Fc [2] (setting [5]); 1370 nM on EphA4 Fc [3] (40 mg/mL delipidated HSA). In the series on EphA4 Fc [3] (6.5 mM methyl-β-cyclodextrin vs buffer), the “effect of methyl-β-cyclodextrin on inhibitory potency” value is “does not affect the inhibitory potency”. In addition, in the series on EphA4 Fc [3] (presence vs absence of 40 mg/mL HSA, tested in parallel), the “effect of HSA on potency” value is on record as “dramatically decreased”.

Take `CC[C@H](C)[C@H](NC(=O)[C@H](CC(C)C)NC(=O)[C@H](CCCNC(=N)N)NC(=O)[C@@H]1CSSC[C@H](NC(=O)[C@H](Cc2ccc(O)cc2)NC(=O)[C@@H]2CCCN2C(=O)CCN)C(=O)N[C@@H](C(C)C)C(=O)N[C@@H](Cc2ccc(O)cc2)C(=O)N[C@@H](CCCNC(=N)N)C(=O)NCCC(=O)N[C@@H](CO)C(=O)N[C@@H](Cc2c[nH]c3ccccc23)C(=O)N[C@@H](CO)C(=O)N1)C(=O)N[C@@H](CCC(=O)O)C(=O)N[C@@H](CC(=O)O)C(=O)N[C@H](C(=O)N[C@H]1CSSC[C@@H](C(=O)N[C@@H](CC(C)C)C(=O)N[C@@H](Cc2c[nH]c3ccccc23)C(=O)N[C@@H](CCC(=O)O)C(=O)N[C@@H](CC(=O)O)C(=O)N[C@@H](CC(=O)O)C(N)=O)NC(=O)CNC(=O)[C@H](Cc2c[nH]c3ccccc23)NC(=O)[C@H](CCCNC(=N)N)NC(=O)[C@@H]2CCCN2C(=O)[C@H](CC(C)C)NC1=O)[C@@H](C)CC` [Compound 21] (H-[βAla]PYCVYR[βAla]SWSCRLIEDICLPRWGCLWEDD-NH2; disulfide 4-12, 19-25): the half-life in series [1] (setting [6]) was roughly 40 min. Also, in the series on EphA4 Fc [2] (ELISA inhibition of EphA4-ephrin-A5 interaction), the “potency compared with APY-d3” value is on record as “as potent as APY-d3”. For the same molecule, the IC50 on EphA4 Fc [2] (setting [5]) amounted to 18 ± 4 nM; at EphA4 Fc [3] (20 mg/ml BSA) it was 130 ± 10 nM. In addition, in the series with EphA4 Fc [3] (20 mg/mL bovine serum albumin), the “decrease in potency in the presence of bovine serum albumin” value was roughly 8 fold.
